For data set [1], the target named is T1, Dual specificity calcium/calmodulin-dependent 3',5'-cyclic nucleotide phosphodiesterase 1B (Homo sapiens, UniProt Q01064). The data set is described as follows: Inhibition of PDE1B (unknown origin).
The target in data set [2] is cAMP and cAMP-inhibited cGMP 3',5'-cyclic phosphodiesterase 10A (Homo sapiens, UniProt Q9Y233). In words: Inhibition of PDE10A (unknown origin).
Data set [3] can be described thus: Fraction unbound in rat at 10 mg/kg, sc. It is filed as ADME, organism-based. Conditions: in vivo.
Data set [4] is described as follows: Terminal half life in rat at 50 mg/kg, po. The data set is classed as ADME, organism-based. The following applies: in vivo, read-out: beta t1/2 (converted).
Data set [5] is described as follows: Fraction unbound in mouse at 32 mg/kg, sc. It is filed as ADME, organism-based. The following applies: in vivo.
Data set [6] in a line: Cmax in rat at 50 mg/kg, po after 0.25 hrs. The data set is classed as ADME, organism-based. Set-up: dose 50 mg/kg, route oral. Conditions: in vivo.
Data set [7] is described as follows: Tmax in rat at 10 mg/kg, sc. It is filed as ADME, organism-based. The following applies: in vivo.
Data set [8] has as its system Nucleic Acid. In words: Ratio of drug level in CSF to unbound fraction in rat plasma at 10 mg/kg, sc. It is filed as ADME, organism-based. The following applies: in vivo.
Data set [9] is described as follows: Half life in mouse at 32 mg/kg, sc. It is filed as ADME, organism-based. The following applies: in vivo.
A short description of data set [10]: Tmax in mouse at 32 mg/kg, sc. It is filed as ADME, organism-based. The following applies: in vivo.
Data set [11] relates to Nucleic Acid. The data set is described as follows: Ratio of drug uptake from blood to plasma in mouse at 32 mg/kg, sc. The data set is classed as ADME, organism-based. The following applies: in vivo.
The nature of data set [12]: Ratio of drug uptake from blood to plasma in rat at 10 mg/kg, sc. Conditions: blood and plasma. The data set is classed as ADME, organism-based.
The nature of data set [13]: Half life in rat at 10 mg/kg, sc. It is filed as ADME, organism-based. Conditions: in vivo.
For data set [14], the target named is T1, Dual specificity calcium/calmodulin-dependent 3',5'-cyclic nucleotide phosphodiesterase 1B. In words: Inhibition of PDE1B (unknown origin) at 1 uM.

T1 sequence (Q01064 whole entry): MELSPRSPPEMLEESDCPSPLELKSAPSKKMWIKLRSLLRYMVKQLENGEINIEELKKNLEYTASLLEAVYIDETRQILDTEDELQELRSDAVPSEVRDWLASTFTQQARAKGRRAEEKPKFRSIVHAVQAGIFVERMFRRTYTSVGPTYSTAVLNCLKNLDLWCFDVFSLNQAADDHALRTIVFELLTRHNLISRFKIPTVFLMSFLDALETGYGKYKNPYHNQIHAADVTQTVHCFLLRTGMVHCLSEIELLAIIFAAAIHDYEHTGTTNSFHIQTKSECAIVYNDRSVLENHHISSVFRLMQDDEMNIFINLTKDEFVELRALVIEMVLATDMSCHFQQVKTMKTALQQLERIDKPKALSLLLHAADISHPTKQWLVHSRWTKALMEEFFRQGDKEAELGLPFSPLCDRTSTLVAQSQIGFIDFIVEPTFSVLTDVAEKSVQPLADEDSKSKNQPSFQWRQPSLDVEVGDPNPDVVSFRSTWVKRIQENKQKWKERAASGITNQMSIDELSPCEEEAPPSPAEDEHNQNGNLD
Sequence of cAMP and cAMP-inhibited cGMP 3',5'-cyclic phosphodiesterase 10A (Q9Y233 whole entry): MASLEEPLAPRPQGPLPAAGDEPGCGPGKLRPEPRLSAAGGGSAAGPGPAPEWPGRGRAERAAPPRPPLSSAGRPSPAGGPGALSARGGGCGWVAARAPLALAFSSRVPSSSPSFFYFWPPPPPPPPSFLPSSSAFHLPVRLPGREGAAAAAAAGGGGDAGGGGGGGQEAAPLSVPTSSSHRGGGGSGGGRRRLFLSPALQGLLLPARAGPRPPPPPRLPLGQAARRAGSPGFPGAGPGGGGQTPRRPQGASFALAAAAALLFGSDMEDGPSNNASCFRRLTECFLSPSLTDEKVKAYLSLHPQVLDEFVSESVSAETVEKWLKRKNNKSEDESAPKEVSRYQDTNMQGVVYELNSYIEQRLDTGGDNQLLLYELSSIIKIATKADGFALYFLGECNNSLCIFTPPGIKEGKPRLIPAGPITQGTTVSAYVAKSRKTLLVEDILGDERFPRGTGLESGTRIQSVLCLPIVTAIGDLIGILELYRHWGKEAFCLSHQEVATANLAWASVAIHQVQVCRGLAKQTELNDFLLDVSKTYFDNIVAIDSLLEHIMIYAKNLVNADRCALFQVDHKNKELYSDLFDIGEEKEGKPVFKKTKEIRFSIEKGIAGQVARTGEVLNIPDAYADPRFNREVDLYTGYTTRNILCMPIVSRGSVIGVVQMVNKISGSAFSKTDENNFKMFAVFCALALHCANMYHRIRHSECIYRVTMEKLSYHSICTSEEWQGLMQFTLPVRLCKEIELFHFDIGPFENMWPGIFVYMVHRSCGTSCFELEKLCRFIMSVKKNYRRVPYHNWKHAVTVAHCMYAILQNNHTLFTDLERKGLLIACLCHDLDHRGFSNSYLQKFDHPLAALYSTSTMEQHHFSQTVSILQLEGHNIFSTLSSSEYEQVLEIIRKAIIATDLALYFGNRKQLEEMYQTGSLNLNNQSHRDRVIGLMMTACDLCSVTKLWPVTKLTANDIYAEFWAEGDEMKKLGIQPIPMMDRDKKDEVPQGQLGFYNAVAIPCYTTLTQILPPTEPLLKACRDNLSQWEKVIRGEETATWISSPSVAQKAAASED

One may read the IC50 as the midpoint of a concentration-inhibition curve. For `COc1ccc2c(C(C)c3cccc(Cl)c3)ncnc2c1OC` (stereo not drawn), the IC50 in data set [1] stood at 22 nM.
For the compound `COc1cc2cnnc(N3CC(O)CC(c4ccccc4)C3)c2cc1OC` (stereo not drawn), it took 3 nM to reach half-maximal inhibition in data set [2] (IC50).
Still for that read-out and setting: the result for `COc1cc2nncc(N3CC(O)CC(c4ccccc4)C3)c2cc1OC` (stereo not drawn) reads 1 nM.
Regarding `COc1ccc2c(C3CCc4ccc(Br)cc43)ncnc2c1OC` (stereo not drawn), the 50% inhibitory concentration (IC50) in data set [1] is 8 nM.
`COc1cc2ncnc(C3CCc4ccc(Cl)cc43)c2cc1OC` (stereo not drawn): in [1], the half-inhibitory concentration (IC50) stood at 83 nM.
In the case of `COc1ccc2c(C3CCc4ccc(F)cc43)ncnc2c1OC` (stereo not drawn), the IC50 in data set [1] was determined as 38 nM.
What is called fraction unbound is free concentration divided by total concentration. High values mean much free substance, low ones little free substance. Usually Cmax stands for the highest concentration seen after dosing. The term Tmax denotes the time from dosing to the highest level. For the compound `CCC(CC)Nc1ncnc2c(OC)c(OC)c(OC)cc12`, the fraction unbound in [3] came out at 0.1; in data set [5], 0.18. Further, the half-life is 306 min in data set [4], 120 min in data set [9] and 39.6 min in data set [13]. The highest concentration (Cmax) in data set [6] came out at 10.9 µM. Also, the Tmax in data set [7] and in data set [10] was 15 min throughout. Moreover, the Ratio is reported as 0.9 in data set [8] and 0.28 in data set [11]. In addition, the blood plasma ratio in data set [12] was determined as 0.4.
Broadly, the inhibition is the drop in the measured response relative to a control, in per cent. With `COc1cc2c(N3C[C@H](C)C[C@H](C)C3)nncc2c(OC)c1OC`, the inhibition in data set [14] was 0%.
Turning to `COc1cc2ncnc(N3CC(O)CC(c4ccccc4)C3)c2cc1OC` (stereo not drawn), inhibition in [2] was half-maximal at 3 nM (IC50).
Take `COc1cc2c(N3C[C@H](C)C[C@H](C)C3)cnnc2c(OC)c1OC`: the inhibition in data set [14] was determined as 0%.
As for `COc1ccc2c(N3C[C@H](C)C[C@H](C)C3)nccc2c1OC`, in data set [14], the inhibition came to 0%.
With `COc1cc2ncnc(Cc3ccccc3)c2cc1OC`, in data set [14], the inhibition was 0%.
With `COc1cc2ncnc(C(C)c3cccc(Cl)c3)c2cc1OC` (stereo not drawn), the 50% inhibitory concentration (IC50) in data set [1] is 230 nM.
Still for that read-out and setting: the result for `COc1ccc2c(C3CCc4ccc(Cl)cc43)ncnc2c1OC` (stereo not drawn) reads 4 nM; that for `COc1ccc2c(N3C[C@H](C)C[C@H](C)C3)ncnc2c1OC`, 70 nM.
For `COc1ccc2c(N3C[C@H](C)C[C@H](C)C3)ccnc2c1OC`, in data set [14], the inhibition stood at 0%.
For the compound `COc1ccc2c([C@@H]3CCc4ccc(Cl)cc43)nccc2c1OC`, the IC50 in [1] was determined as 458 nM.
Consider `COc1cc2ncnc(Cc3cccc(Cl)c3)c2cc1OC`, for which, in [14], the inhibition was determined as 24%.

Source of the values: ChEMBL document CHEMBL3600381, “Small-molecule phosphodiesterase probes: discovery of potent and selective CNS-penetrable quinazoline inhibitors of PDE1” (Medchemcomm, 2014).
